According to patent publication US7880007B2, “Bicyclic substituted phenyl piperidine modulators of muscarinic receptors” (Vertex Pharmaceuticals Incorporated, priority 2004, dated 2011):

What was measured:
Type in all cases: cell-based
[1] = biological target: T1, M1 muscarinic receptor (Homo sapiens, UniProt P11229); test: Functional mobilization of intracellular calcium (FLIPR), M1-CHO cells; conditions: for M1 Activity: M1-CHO cells, calcium mobilization (FLIPR)
T1 construct: expressed in transfected cells; host or cells: CHO (M1-CHO)
T1 sequence (P11229 1-460): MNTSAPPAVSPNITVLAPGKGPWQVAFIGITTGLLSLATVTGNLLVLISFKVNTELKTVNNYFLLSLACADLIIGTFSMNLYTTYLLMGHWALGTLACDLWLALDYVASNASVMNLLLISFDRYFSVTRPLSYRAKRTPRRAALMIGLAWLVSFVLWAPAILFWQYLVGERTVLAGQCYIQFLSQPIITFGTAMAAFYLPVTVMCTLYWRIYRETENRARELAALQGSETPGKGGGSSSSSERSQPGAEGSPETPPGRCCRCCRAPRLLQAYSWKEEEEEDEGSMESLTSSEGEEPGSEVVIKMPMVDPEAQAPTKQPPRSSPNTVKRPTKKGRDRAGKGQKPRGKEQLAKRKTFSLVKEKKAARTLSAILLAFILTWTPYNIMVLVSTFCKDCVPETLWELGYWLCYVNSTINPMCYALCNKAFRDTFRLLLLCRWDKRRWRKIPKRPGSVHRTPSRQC
Procedure, shortened: (§1)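 FLIPR fluorescence (ex 488, em 540 nm) recorded 60 sec after compound addition to dye-loaded CHO cells. Agonist mode: compound alone. Antagonist mode: 15 min compound pre-incubation, then carbachol at EC80, or co-application. Efficacy expressed as % of maximal carbachol response.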

[2] = biological target: T2, M2 muscarinic receptor (Homo sapiens, UniProt P08172); test: Functional mobilization of intracellular calcium (FLIPR), M2-CHO cells; conditions: for M2 Activity: M2-CHO cells, calcium mobilization (FLIPR)
T2 construct: expressed in transfected cells; host or cells: CHO (M2-CHO)
T2 sequence (P08172 1-466): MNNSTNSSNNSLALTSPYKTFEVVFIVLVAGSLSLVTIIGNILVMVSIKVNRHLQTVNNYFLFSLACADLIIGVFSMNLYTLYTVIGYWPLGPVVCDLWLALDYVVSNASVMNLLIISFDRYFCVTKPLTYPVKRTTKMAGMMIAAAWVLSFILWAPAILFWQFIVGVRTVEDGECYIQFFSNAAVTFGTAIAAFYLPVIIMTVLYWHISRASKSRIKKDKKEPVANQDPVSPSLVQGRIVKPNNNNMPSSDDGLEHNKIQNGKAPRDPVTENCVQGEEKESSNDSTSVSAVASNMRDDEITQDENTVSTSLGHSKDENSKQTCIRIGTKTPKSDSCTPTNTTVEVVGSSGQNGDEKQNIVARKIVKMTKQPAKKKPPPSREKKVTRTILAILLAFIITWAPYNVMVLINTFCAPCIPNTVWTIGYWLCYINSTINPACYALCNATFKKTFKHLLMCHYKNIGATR
Procedure, shortened: as §1

[3] = biological target: T3, M3 muscarinic receptor (Homo sapiens, UniProt P20309); test: Functional mobilization of intracellular calcium (FLIPR), M3-CHO cells; conditions: for M3 Activity: M3-CHO cells, calcium mobilization (FLIPR)
T3 construct: expressed in transfected cells; host or cells: CHO (M3-CHO)
Procedure, shortened: as §1

[4] = biological target: T4, M4 muscarinic receptor (Homo sapiens, UniProt P08173); test: Functional mobilization of intracellular calcium (FLIPR), M4-CHO cells; conditions: for M4 Activity: M4-CHO cells, calcium mobilization (FLIPR)
T4 construct: expressed in transfected cells; host or cells: CHO (M4-CHO)
T4 sequence (P08173 1-479): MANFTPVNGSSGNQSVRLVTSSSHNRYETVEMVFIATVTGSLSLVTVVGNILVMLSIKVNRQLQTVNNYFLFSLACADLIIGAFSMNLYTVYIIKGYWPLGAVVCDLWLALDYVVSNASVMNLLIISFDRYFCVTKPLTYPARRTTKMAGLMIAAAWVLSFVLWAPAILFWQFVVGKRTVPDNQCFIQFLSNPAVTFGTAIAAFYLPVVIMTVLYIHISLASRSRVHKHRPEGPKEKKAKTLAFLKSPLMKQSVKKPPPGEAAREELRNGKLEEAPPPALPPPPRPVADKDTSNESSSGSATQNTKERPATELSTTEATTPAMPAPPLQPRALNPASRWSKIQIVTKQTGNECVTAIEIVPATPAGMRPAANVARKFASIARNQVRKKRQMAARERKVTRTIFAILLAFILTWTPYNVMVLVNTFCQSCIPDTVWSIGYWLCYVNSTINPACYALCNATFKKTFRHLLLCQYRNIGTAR
Procedure, shortened: as §1

[5] = 100% efficacy = maximum response obtained with the Carbachol control

T3 sequence (P20309 whole entry): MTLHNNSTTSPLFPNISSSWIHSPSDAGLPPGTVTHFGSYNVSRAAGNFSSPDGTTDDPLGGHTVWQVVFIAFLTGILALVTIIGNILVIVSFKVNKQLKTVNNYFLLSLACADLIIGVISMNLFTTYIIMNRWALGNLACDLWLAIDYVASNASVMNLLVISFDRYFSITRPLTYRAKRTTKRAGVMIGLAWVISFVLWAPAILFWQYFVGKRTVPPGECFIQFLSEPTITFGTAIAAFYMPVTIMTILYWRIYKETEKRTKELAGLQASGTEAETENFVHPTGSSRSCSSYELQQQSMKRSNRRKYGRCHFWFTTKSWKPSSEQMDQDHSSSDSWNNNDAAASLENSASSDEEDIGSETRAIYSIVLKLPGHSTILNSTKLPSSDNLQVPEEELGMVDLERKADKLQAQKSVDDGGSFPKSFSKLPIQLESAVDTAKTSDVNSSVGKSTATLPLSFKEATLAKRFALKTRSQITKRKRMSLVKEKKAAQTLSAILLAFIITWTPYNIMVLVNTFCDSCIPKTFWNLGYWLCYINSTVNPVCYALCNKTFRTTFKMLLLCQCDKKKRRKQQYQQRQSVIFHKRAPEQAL

Structure (SMILES)	Emax [1, 5]	Emax [2, 5]	Emax [3, 5]	Emax [4, 5]	M1 Activity [1]	M2 Activity [2]	M3 Activity [3]	M4 Activity [4]	M1 Efficacy [1, 5]	M2 Efficacy [2, 5]	M3 Efficacy [3, 5]	M4 Efficacy [4, 5]
Cc1ccc(-c2ccccc2C2CCN([C@H]3C[C@H]4CC[C@H]3C4)CC2)cc1 [Compound 45]	< 25%	< 25%	< 25%	25 to 100%	+ (activity was measured to be greater than 5.0 μM)	+ (activity was measured to be greater than 5.0 μM)	+ (activity was measured to be greater than 5.0 μM)	+ (activity was measured to be greater than 5.0 μM)				
Cc1ccccc1C1CCN(CC2CC3C=CC2C3)CC1 (centres unmarked) [Compound 46]	25 to 100%	25 to 100%		25 to 100%	++ (activity was measured to be from 1.0 μM to 5.0 μM)	+ (activity was measured to be greater than 5.0 μM)	+ (activity was measured to be greater than 5.0 μM)	+++ (activity was measured to be less than 1.0 μM)				
CCCOc1ccccc1C1CCN([C@H]2C[C@H]3CC[C@H]2C3)CC1 [Compound 47]	25 to 100%	< 25%	< 25%	25 to 100%	+ (activity was measured to be greater than 5.0 μM)	+ (activity was measured to be greater than 5.0 μM)	+ (activity was measured to be greater than 5.0 μM)	++ (activity was measured to be from 1.0 μM to 5.0 μM)				
COc1ccc(-c2ccc(F)cc2F)cc1C1CCN([C@H]2C[C@H]3CC[C@H]2C3)CC1 [Compound 48]	25 to 100%	< 25%	< 25%	25 to 100%	+ (activity was measured to be greater than 5.0 μM)	+ (activity was measured to be greater than 5.0 μM)	+ (activity was measured to be greater than 5.0 μM)	+ (activity was measured to be greater than 5.0 μM)				
COc1cc(F)c(F)c(C2CCN(C3CCOCC3)CC2)c1 [Compound 49]	25 to 100%	< 25%	< 25%	25 to 100%	+ (activity was measured to be greater than 5.0 μM)	+ (activity was measured to be greater than 5.0 μM)	+ (activity was measured to be greater than 5.0 μM)	+++ (activity was measured to be less than 1.0 μM)				
COc1ccc(Cl)cc1C1CCN(C2CCC(=NOC3CCCCO3)CC2)CC1 (centres unmarked) [Compound 54]					++ (activity was measured to be from 1.0 μM to 5.0 μM)	+ (activity was measured to be greater than 5.0 μM)	+ (activity was measured to be greater than 5.0 μM)	+++ (activity was measured to be less than 1.0 μM)	++ (efficacy was calculated to be from 100% to 25%)	+ (efficacy was calculated to be less than 25%)	+ (efficacy was calculated to be less than 25%)	++ (efficacy was calculated to be from 100% to 25%)
COc1ccc(F)cc1C1(O)CCN(C[C@@H]2C[C@H]3C=C[C@H]2C3)CC1 [Compound 60]	< 25%	< 25%	< 25%	25 to 100%	+ (activity was measured to be greater than 5.0 μM)	+ (activity was measured to be greater than 5.0 μM)	+ (activity was measured to be greater than 5.0 μM)	++ (activity was measured to be from 1.0 μM to 5.0 μM)				
Cc1ccc(C)c(C2(O)CCN(CC3CC4C=CC3C4)CC2)c1 (centres unmarked) [Compound 62, 1-((bicyclo[2.2.1]hept-5-en-2-yl)methyl)-4-(2,5-dimethylphenyl)piperidin-4-ol]	25 to 100%	< 25%		25 to 100%	++ (activity was measured to be from 1.0 μM to 5.0 μM)	+ (activity was measured to be greater than 5.0 μM)	+ (activity was measured to be greater than 5.0 μM)	++ (activity was measured to be from 1.0 μM to 5.0 μM)				

Now from value to molecule, other results behind:

Emax [1, 5]	Emax [2, 5]	Emax [3, 5]	Emax [4, 5]	Structure (SMILES)	M1 Activity [1]	M2 Activity [2]	M3 Activity [3]	M4 Activity [4]	M1 Efficacy [1, 5]	M2 Efficacy [2, 5]	M3 Efficacy [3, 5]	M4 Efficacy [4, 5]
25 to 100%	< 25%	< 25%	25 to 100%	COc1ccc(C(=O)c2ccccc2)cc1C1CCN([C@H]2C[C@H]3CC[C@H]2C3)CC1 [Compound 50]	+ (activity was measured to be greater than 5.0 μM)	+ (activity was measured to be greater than 5.0 μM)	+ (activity was measured to be greater than 5.0 μM)	++ (activity was measured to be from 1.0 μM to 5.0 μM)				
25 to 100%	25 to 100%	< 25%	25 to 100%	COc1ccc(C)cc1C1CCN(C2C[C@H]3CC[C@H]2C3)CC1 (some centres unmarked) [Compound 51]	++ (activity was measured to be from 1.0 μM to 5.0 μM)	+ (activity was measured to be greater than 5.0 μM)	+ (activity was measured to be greater than 5.0 μM)	+++ (activity was measured to be less than 1.0 μM)				
< 25%	< 25%	< 25%	25 to 100%	COc1ccc(-c2ccc3c(c2)OCO3)cc1C1CCN(C2CCOCC2)CC1 [Compound 52]	+ (activity was measured to be greater than 5.0 μM)	+ (activity was measured to be greater than 5.0 μM)	+ (activity was measured to be greater than 5.0 μM)	+ (activity was measured to be greater than 5.0 μM)				
25 to 100%	25 to 100%	< 25%	25 to 100%	COc1ccc(C(=O)COc2ccccc2C2CCN([C@H]3C[C@H]4CC[C@H]3C4)CC2)cc1 [Compound 57]	++ (activity was measured to be from 1.0 μM to 5.0 μM)	++ (activity was measured to be from 1.0 μM to 5.0 μM)	+ (activity was measured to be greater than 5.0 μM)	++ (activity was measured to be from 1.0 μM to 5.0 μM)				
25 to 100%	< 25%	< 25%	25 to 100%	COc1ccc(F)cc1C1(F)CCN(C2CCCCC2)CC1 [Compound 59]	+ (activity was measured to be greater than 5.0 μM)	+ (activity was measured to be greater than 5.0 μM)	+ (activity was measured to be greater than 5.0 μM)	++ (activity was measured to be from 1.0 μM to 5.0 μM)				
25 to 100%	< 25%	< 25%	25 to 100%	CCOC(=O)N1CCC(CN2CCC(c3cc(F)cc(F)c3OC)CC2)CC1 [Compound 65]	+++ (activity was measured to be less than 1.0 μM)	+ (activity was measured to be greater than 5.0 μM)	+ (activity was measured to be greater than 5.0 μM)	+++ (activity was measured to be less than 1.0 μM)				
